For CCc1ccc(Cc2c(O[C@@H]3S[C@H](CO)[C@@H](O)[C@H](O)[C@H]3O)nn(C(C)C)c2C)cc1 [Compound 1, 4′-(4′-ethylbenzyl)-1′-isopropyl-5′-methyl-1′H-pyrazol-3′-yl 5-thio-β-D-glucopyranoside], the melting point was 54 to 58.5 °C. COc1ccc(Cc2c(O[C@@H]3S[C@H](CO)[C@@H](O)[C@H](O)[C@H]3O)n[nH]c2C)cc1F [Compound 4, 4′-[(3′-fluoro-4′-methoxyphenyl)methyl]-5′-methyl-1′H-pyrazol-3′-yl 5-thio-β-D-glucopyranoside] gave a melting point of 145 to 147 °C. For CCOC(=O)OC[C@H]1S[C@@H](Oc2nn(C(=O)OCC)c(C)c2Cc2ccc(OC)cc2)[C@H](O)[C@@H](O)[C@@H]1O [Compound 8, 1′-ethoxycarbonyl-4′-[(4′-methoxyphenyl)methyl]-5′-methyl-pyrazol-3′-yl 6-O-ethoxycarbonyl-5-thio-β-D-glucopyranoside], the melting point was 106 to 110 °C. CCc1ccc(Cc2ccncc2O[C@@H]2S[C@H](CO)[C@@H](O)[C@H](O)[C@H]2O)cc1 [Compound 20, 4′-(4′-ethylbenzyl)pyridin-3′-yl 5-thio-β-D-glucopyranoside] showed a melting point of 184 to 187 °C. CCc1ccc(Cc2nccnc2O[C@@H]2S[C@H](CO)[C@@H](O)[C@H](O)[C@H]2O)cc1 [Compound 23, 3′-(4′-ethylbenzyl)-1′H-pyrazin-2′-yl 5-thio-β-D-glucopyranoside] gave a melting point of 181 to 183.5 °C. Work on CCc1ccc(Cc2c(C)nc(C)nc2O[C@@H]2S[C@H](CO)[C@@H](O)[C@H](O)[C@H]2O)cc1 [Compound 24, 5′-(ethylbenzyl)-2′,6′-dimethyl-3′H-pyrimidin-4′-yl 5-thio-β-D-glucopyranoside] yielded a melting point of 143 to 147.5 °C. With OCCc1ccc(Cc2ccncc2O[C@@H]2S[C@H](CO)[C@@H](O)[C@H](O)[C@H]2O)cc1 [Compound 32, 4′-[4′-(2′-hydroxyethyl)benzyl]pyridin-3′-yl 5-thio-β-D-glucopyranoside] the melting point was 194.5 to 195 °C.
